Consider one compound from PubChem BioAssay (NCI).

Structures are written as SMILES.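 A five-concentration, 48-hour dose response in 96-well plates underlies each endpoint, interpolated linearly between surrounding concentrations. Definition used: TGI = concentration required for complete inhibition of growth.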

For the test, the system named is P388 leukemia. Description: NCI tumour cell line growth inhibition, 48 h.

In the case of `CCCCCCCC(=O)O[C@H]1[C@H]2[C@@H](CC1(C)C)C(=O)[C@]13O[C@H]1C(=O)[C@]1(CO1)[C@]23C`, the TGI worked out at 5.19 µM.
